Several values for one entry are separate records, joined by “and”; a condition that tells them apart may be missing. Equal values may be shown once. Inconclusive results and toxic doses are left out. Rule as the data show it: active = T/C of 150% or more; inactive = T/C below 125%.
System: L1210 leukemia ip in BDF1 mice, survival T/C
Experiment: NCI In Vivo Anticancer Drug Screen. Data for tumor model L1210 Leukemia (intraperitoneal) in B6D2F1 (BDF1) mice
Conditions: higher = longer survival
Method in brief: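 Survival endpoint. Drug-treated group vs vehicle group, expressed as T divided by C. Tumor passaged by transplantation.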

[1] = endpoint: mean survival time, dose: 100.0 mg/kg/injection, schedule: Q01DX009 (ip), vehicle: Klucel (hydroxypropylcellulose) (HPC)
[2] = endpoint: mean survival time, dose: 200.0 mg/kg/injection, schedule: Q01DX009 (ip), vehicle: Klucel (hydroxypropylcellulose) (HPC)
[3] = endpoint: mean survival time, dose: 100.0 mg/kg/injection, schedule: Q04DX003 (ip), vehicle: saline with Tween-80
[4] = endpoint: mean survival time, dose: 200.0 mg/kg/injection, schedule: Q04DX003 (ip), vehicle: saline with Tween-80
[5] = endpoint: mean survival time, dose: 400.0 mg/kg/injection, schedule: Q04DX003 (ip), vehicle: saline with Tween-80
[6] = endpoint: mean survival time, dose: 100.0 mg/kg/injection, schedule: Q01DX001 (ip), vehicle: Klucel (hydroxypropylcellulose) (HPC)
[7] = endpoint: mean survival time, dose: 200.0 mg/kg/injection, schedule: Q01DX001 (ip), vehicle: Klucel (hydroxypropylcellulose) (HPC)
[8] = endpoint: mean survival time, dose: 400.0 mg/kg/injection, schedule: Q01DX001 (ip), vehicle: Klucel (hydroxypropylcellulose) (HPC)
[9] = endpoint: mean survival time, dose: 50.0 mg/kg/injection, schedule: Q01DX001 (ip), vehicle: Klucel (hydroxypropylcellulose) (HPC)
[10] = endpoint: mean survival time, dose: 400.0 mg/kg/injection, schedule: Q04DX002 (ip), vehicle: Klucel (hydroxypropylcellulose) (HPC)
[11] = endpoint: mean survival time, dose: 100.0 mg/kg/injection, schedule: Q01DX001 (ip), vehicle: carboxymethylcellulose (CMC)
[12] = endpoint: mean survival time, dose: 200.0 mg/kg/injection, schedule: Q01DX001 (ip), vehicle: carboxymethylcellulose (CMC)

Measured: T/C

CCN(CC)CCCC(C)NC(=O)c1ccc(N(C)C)nc1 (stereo not given)
inactive: endpoint: mean survival time, dose: 25.0 mg/kg/injection, schedule: Q01DX009 (ip), vehicle: water 97 % of control | endpoint: mean survival time, dose: 50.0 mg/kg/injection, schedule: Q01DX009 (ip), vehicle: water 104 % of control | endpoint: mean survival time, dose: 100.0 mg/kg/injection, schedule: Q01DX009 (ip), vehicle: water 101 % of control | endpoint: mean survival time, dose: 200.0 mg/kg/injection, schedule: Q01DX009 (ip), vehicle: water 104 % of control | endpoint: mean survival time, dose: 400.0 mg/kg/injection, schedule: Q01DX009 (ip), vehicle: water 101 % of control

O=C(O)/C(I)=C(\I)C(=O)O
inactive: endpoint: mean survival time, dose: 100.0 mg/kg/injection, schedule: Q04DX002 (ip), vehicle: saline 106 % of control | endpoint: mean survival time, dose: 200.0 mg/kg/injection, schedule: Q04DX002 (ip), vehicle: saline 117 % of control

NC(=S)N/N=C/c1c[nH]c2ccccc12
inactive: [1] 95 % of control | endpoint: mean survival time, dose: 100.0 mg/kg/injection, schedule: Q04DX003 (ip), vehicle: Klucel (hydroxypropylcellulose) (HPC) 87 % of control | [2] 97 % of control | endpoint: mean survival time, dose: 200.0 mg/kg/injection, schedule: Q04DX003 (ip), vehicle: Klucel (hydroxypropylcellulose) (HPC) 96 % of control | endpoint: mean survival time, dose: 400.0 mg/kg/injection, schedule: Q04DX003 (ip), vehicle: Klucel (hydroxypropylcellulose) (HPC) 94 % of control

CCOC(=O)CCN(C(=O)Nc1ccccc1)C1CCCCC1
inactive: endpoint: mean survival time, dose: 100.0 mg/kg/injection, schedule: Q01DX Z (ip), vehicle: methylcellulose (MC) 92 % of control | endpoint: mean survival time, dose: 200.0 mg/kg/injection, schedule: Q01DX Z (ip), vehicle: methylcellulose (MC) 97 % of control

Cc1c([N+](=O)[O-])cc(C(C)(C)C)c(O)c1[N+](=O)[O-]
inactive: endpoint: mean survival time, dose: 6.25 mg/kg/injection, schedule: Q01DX009 (ip), vehicle: saline with Tween-80 95 % of control | endpoint: mean survival time, dose: 12.5 mg/kg/injection, schedule: Q01DX009 (ip), vehicle: saline with Tween-80 91 % of control | endpoint: mean survival time, dose: 12.5 mg/kg/injection, schedule: Q04DX002 (ip), vehicle: Klucel (hydroxypropylcellulose) (HPC) 110 % of control | endpoint: mean survival time, dose: 25.0 mg/kg/injection, schedule: Q04DX002 (ip), vehicle: Klucel (hydroxypropylcellulose) (HPC) 112 % of control | endpoint: mean survival time, dose: 25.0 mg/kg/injection, schedule: Q04DX002 (ip), vehicle: saline with Tween-80 89 % of control

CCCCCCCCCCCCCCCCCCN1CCSCC1
inactive: endpoint: mean survival time, dose: 100.0 mg/kg/injection, schedule: Q01DX009 (ip), vehicle: saline with Tween-80 96 % of control and 108 % of control | endpoint: mean survival time, dose: 100.0 mg/kg/injection, schedule: Q04DX002 (ip), vehicle: saline with Tween-80 93 % of control and 103 % of control | [3] 104 % of control | endpoint: mean survival time, dose: 200.0 mg/kg/injection, schedule: Q01DX009 (ip), vehicle: saline with Tween-80 100 % of control and 103 % of control | endpoint: mean survival time, dose: 200.0 mg/kg/injection, schedule: Q04DX002 (ip), vehicle: saline with Tween-80 94 % of control and 91 % of control | [4] 104 % of control | endpoint: mean survival time, dose: 400.0 mg/kg/injection, schedule: Q01DX009 (ip), vehicle: saline with Tween-80 103 % of control and 110 % of control | endpoint: mean survival time, dose: 400.0 mg/kg/injection, schedule: Q04DX002 (ip), vehicle: saline with Tween-80 98 % of control | [5] 106 % of control

CC1(C)C2CC3C(=CCC4C(=O)C5CC=C6C(CC7CC6C7(C)C)C5C(=O)C43)C1C2 (stereo not given)
inactive: [6] 103 % of control | [7] 93 % of control | [8] 93 % of control

CCCCCn1cnc2c(=O)[nH]c(N)nc21
inactive: [9] 105 % of control | [6] 103 % of control | [7] 106 % of control

N=c1nc2n(cc1F)[C@@H]1O[C@H](CO)[C@@H](O)[C@@H]1O2
inactive: [8] 113 % of control | endpoint: mean survival time, dose: 800.0 mg/kg/injection, schedule: Q01DX001 (ip), vehicle: Klucel (hydroxypropylcellulose) (HPC) 116 % of control | endpoint: mean survival time, dose: 2000.0 mg/kg/injection, schedule: Q01DX001 (ip), vehicle: Klucel (hydroxypropylcellulose) (HPC) 123 % of control | endpoint: median survival time, dose: 400.0 mg/kg/injection, schedule: Q01DX001 (oral), vehicle: water 120 % of control
active: [1] 187 % of control | [2] 177 % of control | [10] 165 % of control and 173 % of control | endpoint: mean survival time, dose: 600.0 mg/kg/injection, schedule: Q04DX002 (ip), vehicle: Klucel (hydroxypropylcellulose) (HPC) 180 % of control | endpoint: mean survival time, dose: 2000.0 mg/kg/injection, schedule: Q01DX001 (ip), vehicle: saline 152 % of control | endpoint: median survival time, dose: 25.0 mg/kg/injection, schedule: Q03HX024 (ip), vehicle: water 255 % of control | endpoint: median survival time, dose: 50.0 mg/kg/injection, schedule: Q01DX009 (ip), vehicle: steriod suspending solution 175 % of control | endpoint: median survival time, dose: 50.0 mg/kg/injection, schedule: Q03HX024 (ip), vehicle: water 610 % of control | endpoint: median survival time, dose: 100.0 mg/kg/injection, schedule: Q01DX009 (ip), vehicle: steriod suspending solution 180 % of control | endpoint: median survival time, dose: 100.0 mg/kg/injection, schedule: Q01DX009 (ip), vehicle: water 190 % of control | endpoint: median survival time, dose: 100.0 mg/kg/injection, schedule: Q03HX024 (ip), vehicle: water 390 % of control | endpoint: median survival time, dose: 200.0 mg/kg/injection, schedule: Q01DX009 (ip), vehicle: steriod suspending solution 205 % of control | endpoint: median survival time, dose: 200.0 mg/kg/injection, schedule: Q01DX009 (ip), vehicle: water 240 % of control | endpoint: median survival time, dose: 400.0 mg/kg/injection, schedule: Q01DX009 (ip), vehicle: steriod suspending solution 340 % of control | endpoint: median survival time, dose: 400.0 mg/kg/injection, schedule: Q01DX009 (ip), vehicle: water 450 % of control | endpoint: median survival time, dose: 800.0 mg/kg/injection, schedule: Q01DX001 (ip), vehicle: water 150 % of control

CC(C)NNC(=O)C(C)O (stereo not given)
inactive: endpoint: mean survival time, dose: 25.0 mg/kg/injection, schedule: Q01DX009 (ip), vehicle: saline 93 % of control | endpoint: mean survival time, dose: 25.0 mg/kg/injection, schedule: Q04DX003 (ip), vehicle: saline 109 % of control | endpoint: mean survival time, dose: 50.0 mg/kg/injection, schedule: Q01DX009 (ip), vehicle: saline 90 % of control | endpoint: mean survival time, dose: 50.0 mg/kg/injection, schedule: Q04DX003 (ip), vehicle: saline 96 % of control | endpoint: mean survival time, dose: 100.0 mg/kg/injection, schedule: Q01DX009 (ip), vehicle: saline 97 % of control | endpoint: mean survival time, dose: 100.0 mg/kg/injection, schedule: Q04DX003 (ip), vehicle: saline 93 % of control | endpoint: mean survival time, dose: 200.0 mg/kg/injection, schedule: Q01DX009 (ip), vehicle: saline 87 % of control | endpoint: mean survival time, dose: 200.0 mg/kg/injection, schedule: Q04DX003 (ip), vehicle: saline 112 % of control | endpoint: mean survival time, dose: 400.0 mg/kg/injection, schedule: Q01DX009 (ip), vehicle: saline 95 % of control | endpoint: mean survival time, dose: 400.0 mg/kg/injection, schedule: Q04DX003 (ip), vehicle: saline 96 % of control

O=S(=O)(NC(CCl)=NCc1ccccc1)c1ccccc1
inactive: endpoint: mean survival time, dose: 100.0 mg/kg/injection, schedule: Q04DX002 (ip), vehicle: Klucel (hydroxypropylcellulose) (HPC) 96 % of control | endpoint: mean survival time, dose: 200.0 mg/kg/injection, schedule: Q04DX002 (ip), vehicle: Klucel (hydroxypropylcellulose) (HPC) 100 % of control | [10] 86 % of control

O=C(O)[C@H]1CC2CCC1C2 (stereo not given in full)
inactive: [3] 98 % of control | [4] 102 % of control | [5] 93 % of control

Cc1ccc(S(=O)(=O)NN=C(/C=C/c2ccccc2)/C=C/c2ccccc2)cc1
inactive: [9] 102 % of control | [6] 107 % of control | [7] 103 % of control

C/C(=N/NC(N)=O)c1cccc([N+](=O)[O-])c1
inactive: endpoint: mean survival time, dose: 100.0 mg/kg/injection, schedule: Q01DX001 (ip), vehicle: saline 89 % of control | endpoint: mean survival time, dose: 200.0 mg/kg/injection, schedule: Q01DX001 (ip), vehicle: saline 89 % of control | endpoint: mean survival time, dose: 400.0 mg/kg/injection, schedule: Q01DX001 (ip), vehicle: saline 93 % of control

N#Cc1nccnc1C#N
inactive: endpoint: mean survival time, dose: 25.0 mg/kg/injection, schedule: Q04DX002 (ip), vehicle: DMSO 96 % of control | endpoint: mean survival time, dose: 50.0 mg/kg/injection, schedule: Q04DX002 (ip), vehicle: DMSO 100 % of control | endpoint: mean survival time, dose: 100.0 mg/kg/injection, schedule: Q04DX002 (ip), vehicle: DMSO 100 % of control

O=C(C1CCC2c3ccccc3CCC2C1C(=O)N1CCCCC1)N1CCCCC1 (stereo not given)
inactive: endpoint: mean survival time, dose: 50.0 mg/kg/injection, schedule: Q01DX001 (ip), vehicle: carboxymethylcellulose (CMC) 103 % of control | [11] 101 % of control | [12] 108 % of control

CC(=O)Nc1ccc(C=O)s1
inactive: [11] 97 % of control | [12] 94 % of control | endpoint: mean survival time, dose: 400.0 mg/kg/injection, schedule: Q01DX001 (ip), vehicle: carboxymethylcellulose (CMC) 103 % of control

— PubChem BioAssay AID248 (DTP/NCI, 2004)
